In data set [1] the test system is synaptic membranes of the rat cortex. Nature of the data set: Binding of ^3H-GABA on synaptic membranes of the rat cortex (method of Enna and Snyder). The following applies: for Product bound % (^3H-GABA binding on rat cortex membranes): ^3H-GABA 2.10^-8 M. The source says: Table I presents the results of these tests, expressed in percentage of the fixed active product, comparing the in vitro activity of Product 1 with the activities of the individual components which comprise Product 1.

For data set [2] the following is noted: GABA by itself; cited from earlier work.
The nature of data set [3]: Anticonvulsant effects in rat (isoniazide convulsions). The data set is classed as in vivo. As for the experimental part: The in vivo activity of Product 1 was measured by the method described by Costa et al (E. Costa, A. Guidotti and C. C. Mao; "Evidence for involvement of GABA in the Action of Benzodiazepines: Studies in Rat Cerebellum" in Mechanism of Action of Benzodiazepines; Ed. by E. Costa and P. Greengard, New York, Raven Press. pp. 113-130 (1975)) and by Loescher and Frey (Loesher, W. and Frey, H. H.; "Effect of convulsant and anticonvulsant agents on level and metabolism of gamma-aminobutyric acid in mouse brain"; Naunyn-Schmiedeberg's Arch. Pharmacol. 296, 263-269 (1977)). These tests are based on the known activity of isoniazide to cause convulsions and a lowering of the GABA cerebral levels and the glutamic-decarboxylase enzyme activity.

The conditions of data set [4]: mice; cited from earlier work.
The conditions of data set [5]: background statement; cited from earlier work.
Data set [6] can be described thus: General pharmacological activity in vitro and in vivo. The following applies: tested in vitro and in vivo in laboratory animals.
In data set [7] the test system is prolactin. Nature of the data set: Hypoprolactinemic effect in rats, serum prolactin by RIA, sulpiride-treated (hyperprolactinemic) animals. Particulars: for inhibition in vivo at 0.5 mg/kg / inhibition in vivo at 5 mg/kg: Rattus norvegicus; for inhibition in vivo at 0.5 mg/kg: read-out: Prolactin Inhibition %, sulpiride 10 γ/kg + 0.5 mg/kg test substance; for inhibition in vivo at 5 mg/kg: read-out: Prolactin Inhibition %, sulpiride 10 γ/kg + 5.0 mg/kg test substance.

The target of the next data set is T1, dopamine receptors (Rattus norvegicus, UniProt P61169).
T1 construct: on hypophysis sinaptosomal rat membranes; from tissue; host or cells: rat hypophysis (pituitary), synaptosomal membranes
Nature of the data set: Binding of (^3H)-spiroperidole to hypophysis membranes of rat. The following applies: for binding power / in vitro activity, in words: compared to the parent acid or lipid alone; for activity at 100 µM / activity at 10 µM / activity at 1 µM / activity at 0.1 µM: read-out: Product bound % ((^3H) spiroperidole binding to hypophysis membranes), (^3H) spiroperidole 2.10^-9 M (2 nM); for activity at 100 µM: test substance 10^-4 M; for activity at 10 µM: test substance 10^-5 M; for activity at 1 µM: test substance 10^-6 M; for activity at 0.1 µM: test substance 10^-7 M. As for the experimental part:
The in vitro biological activity was determined by comparative tests measuring the binding power of the labelled spiroperidole (^3 H)-spiroperidole on hypophysis sinaptosomal rat membranes according to the method described by Greese et al (GREESE I., SCHNEIDER R. and SNYDER S. H.; H-spiroperidole labels dopamine receptors in pituitary and brain; Europ. J. Pharmacol. 46, 377-381 (1977)).

Data set [8] concerns prolactin. Nature of the data set: Hypoprolactinemic effect in rats, serum prolactin by RIA, at the circadian peak at 4 p.m. Particulars: for Prolactin / inhibition in vivo at 0.5 mg/kg / inhibition in vivo at 5 mg/kg: circadian peak at 4 p.m.; for inhibition in vivo at 0.5 mg/kg / inhibition in vivo at 5 mg/kg: Rattus norvegicus; for inhibition in vivo at 0.5 mg/kg: read-out: Prolactin Inhibition %, 0.5 mg/kg; for inhibition in vivo at 5 mg/kg: read-out: Prolactin Inhibition %, 5.0 mg/kg; for in vivo (hypoprolactinemic) activity, in words: rats, summary statement.

Where [9] appears, read: test substance 10^-8 M, 0.01 µM.
The mark [10] stands for this setting: isoniazide 160 mg/kg (s.c.) + GABA 8 mg/kg (i.p.).
Where [11] appears, read: isoniazide 160 mg/kg (s.c.) + Product 1 20 mg/kg (i.p.).
Where [12] appears, read: sulpiride 10 γ/kg + 0.5 mg/kg test substance.
Setting [13] is: sulpiride 10 γ/kg + 5.0 mg/kg test substance.

Each structure is given as a SMILES string.

T1 sequence (P61169 whole entry): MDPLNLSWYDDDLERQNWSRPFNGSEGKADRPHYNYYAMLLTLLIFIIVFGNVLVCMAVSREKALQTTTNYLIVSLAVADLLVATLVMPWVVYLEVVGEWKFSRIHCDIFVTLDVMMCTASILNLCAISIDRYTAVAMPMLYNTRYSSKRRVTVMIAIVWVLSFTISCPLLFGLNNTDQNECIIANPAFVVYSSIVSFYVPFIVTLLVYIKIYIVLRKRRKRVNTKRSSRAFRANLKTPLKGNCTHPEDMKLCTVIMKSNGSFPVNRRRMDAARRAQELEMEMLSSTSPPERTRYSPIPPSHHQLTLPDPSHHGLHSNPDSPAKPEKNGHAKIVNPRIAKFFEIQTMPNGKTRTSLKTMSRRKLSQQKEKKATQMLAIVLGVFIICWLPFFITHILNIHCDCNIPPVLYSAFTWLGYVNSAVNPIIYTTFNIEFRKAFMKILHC

Turning to `NCCCC(=O)O` [GABA, Gamma-aminobutyric acid], the “Product bound % (^3H-GABA binding on rat cortex membranes)” value in [1] (test substance 10^-4 M, 100 µM) is listed as 20%; in data set [1] (test substance 10^-5 M, 10 µM), 20%; in [1] (test substance 10^-6 M, 1 µM), 25%; in data set [1] (test substance 10^-7 M, 0.1 µM), 45%; in data set [1] (setting [9]), 90%. Also, the “in vitro biological activity (GABA binding), in words” value in data set [1] (summary of Table I) is “activity comparable to that of Product 1”. In addition, the “penetration of the encephalic barrier, in words” value in data set [2] is given as “incapable, by itself, of penetrating the encephalic barrier”. In [3] (setting [10]), the “Latency of the convulsions measured” value was 3100 ± 156 s. Moreover, in data set [3] (setting [10]), the “Number of animals in convulsions” value is listed as 24/30. In addition, in data set [3] (setting [10]), the “Number of dead animals” value turned out to be 14. Further, the “effect when administered in vivo as measured by convulsion tests” value in [4] is “ineffective”. Also, the “in vitro / in vivo activity, in words” value in data set [5] was “active in vitro but relatively inactive in vivo”.

Consider `CCCCCCCCCCCCCC=CC(O)C(CO)NC(=O)CCCN` (stereo not shown) [Product 1, Gamma-aminobutyrylsphingosine amide], for which the “Product bound % (^3H-GABA binding on rat cortex membranes)” value amounted to 20% in data set [1] (test substance 10^-4 M, 100 µM); 25% in data set [1] (test substance 10^-5 M, 10 µM); 40% in data set [1] (test substance 10^-6 M, 1 µM); 60% in data set [1] (test substance 10^-7 M, 0.1 µM); 95% in data set [1] (setting [9]). The “in vivo (anticonvulsant) activity, in words” value in [3] (compared to GABA or sphingosine alone) is “far superior in vivo activity as compared to GABA or sphingosine alone”. In addition, in data set [3] (setting [11]), the “Latency of the convulsions measured” value was found to be 4500 ± 330 s. In addition, in [3] (setting [11]), the “Number of animals in convulsions” value is on record as 9/30. The “Number of dead animals” value in data set [3] (setting [11]) worked out at 3. Besides, the “action in the central nervous system, in words” value (“action” for short) in data set [6] is reported as “capable of acting directly in the central nervous system”.

As to `CCCCCCCCCCCCCCCC(O)C(CO)NC(=O)C1CC2c3cccc4[nH]cc(c34)CC2N(C)C1` (stereo not shown) [Product 15, Dihydrolysergyldihydrosphingosine amide], in the data set on prolactin [7], the inhibition in vivo at 0.5 mg/kg was 44% and the inhibition in vivo at 5 mg/kg turned out to be 55%. For the same molecule, the Prolactin in the data set with prolactin [7] (setting [12]) was 48.0 ± 4.0 ng/mL. Further, the Prolactin in the data set with prolactin [7] (setting [13]) worked out at 39.0 ± 6.0 ng/mL. In addition, the “action” value in data set [6] is “capable of acting directly in the central nervous system”. For the same molecule, on dopamine receptors, the “binding power / in vitro activity, in words” value was “far superior to either dihydrolysergic acid or dihydrosphingosine alone”; the activity at 100 µM is 20%; the activity at 10 µM was determined as 30%; the activity at 1 µM was found to be 90%. Further, the activity at 0.1 µM on dopamine receptors was determined as 100%. For the same molecule, the Prolactin in the data set with prolactin [8] (0.5 mg/kg) is 40.0 ± 5.6 ng/mL. The same molecule came in with a Prolactin in the data set with prolactin [8] (5.0 mg/kg) of 31.0 ± 3.4 ng/mL. In the data set with prolactin [8], the inhibition in vivo at 0.5 mg/kg amounted to 35%; the inhibition in vivo at 5 mg/kg is 50%; the “in vivo (hypoprolactinemic) activity, in words” value was “far superior to either dihydrolysergic acid or dihydrosphingosine alone”.

Consider `CCCCCCCCCCCCCC=CC(O)C(COC1OC(CO)C(O)C(O)C1O)NC(=O)C1CC2c3cccc4[nH]cc(c34)CC2N(C)C1` (stereo not shown) [Product 16, Dihydrolysergylpsychosine amide], for which, in the data set on prolactin [7], the inhibition in vivo at 0.5 mg/kg turned out to be 37% and the inhibition in vivo at 5 mg/kg stood at 52%. Further, in the data set on prolactin [7] (setting [12]), the Prolactin came to 51.0 ± 7.0 ng/mL. Besides, the Prolactin in the data set on prolactin [7] (setting [13]) came out at 39.0 ± 4.0 ng/mL. Moreover, in data set [6], the “action” value is “capable of acting directly in the central nervous system”. For the same molecule, on dopamine receptors, the “binding power / in vitro activity, in words” value was “far superior to either dihydrolysergic acid or psychosine alone”; the activity at 100 µM is 25%; the activity at 10 µM came to 45%; the activity at 1 µM was 80%. Also, the activity at 0.1 µM at dopamine receptors stood at 100%. Besides, in the data set with prolactin [8] (0.5 mg/kg), the Prolactin was determined as 40.0 ± 7.0 ng/mL. In the data set on prolactin [8] (5.0 mg/kg), this molecule came in with a Prolactin of 31.0 ± 6.0 ng/mL. In addition, in the data set with prolactin [8], the inhibition in vivo at 0.5 mg/kg amounted to 31%; the inhibition in vivo at 5 mg/kg is 47%; the “in vivo (hypoprolactinemic) activity, in words” value is “far superior to either dihydrolysergic acid or psychosine alone”.

The values are drawn from patent US4897382A, “Organic amide compounds derived from nitrogenous lipids” (priority 1981, dated 1990).
